Assay: xn = mol fraction of the nth substance listed

Cc1c[nH]c(=O)[nH]c1=O + O
viscosity [mPa·s], 101.3 kPa
Conditions	293.15 K	298.15 K	303.15 K	308.15 K	313.15 K	318.15 K
x1 = 0.000119	1.006	0.895	0.803	0.738	0.623	0.595
x1 = 0.000164	–	0.893	–	0.722	–	0.598
x1 = 0.0001877	1.008	0.897	0.805	0.74	0.625	0.597
x1 = 0.000266	–	0.895	–	0.723	–	0.6
x1 = 0.0003006	1.01	0.899	0.807	0.742	0.627	0.599
x1 = 0.0003339	–	0.896	–	0.724	–	0.6
x1 = 0.0003713	–	0.896	–	0.724	–	0.601
x1 = 0.0003733	1.012	0.901	0.809	0.744	0.629	0.601
x1 = 0.0004194	–	0.897	–	0.725	–	0.601
x1 = 0.0004572	1.014	0.903	0.811	0.746	0.631	0.603
x1 = 0.0004811	–	0.898	–	0.726	–	0.602
x1 = 0.0005454	1.016	0.905	0.813	0.748	0.633	0.605

Nc1cc[nH]c(=O)n1 + O
viscosity [mPa·s], 101.3 kPa
Conditions	x1 = 0.000131	x1 = 0.0001895	x1 = 0.0002822	x1 = 0.000457	x1 = 0.0004889	x1 = 0.0005591
298.15 K	0.892	0.893	0.894	0.895	0.896	0.897
308.15 K	0.721	0.722	0.722	0.724	0.724	0.725
318.15 K	0.598	0.598	0.599	0.601	0.601	0.602

O=C([O-])CC(O)(CC(=O)O)C(=O)O.[K+] + O
viscosity [mPa·s], 101 kPa
Conditions	293.15 K	298.15 K	303.15 K	308.15 K
x1 = 0.0032	1.074	0.954	0.853	0.766
x1 = 0.0089	1.237	1.089	0.97	0.876
x1 = 0.0177	1.419	1.253	1.117	1.002

[O-][Cl+3]([O-])([O-])O[Cl+3]([O-])([O-])[O-] + O
293.15 K, 101.33 kPa
Conditions	viscosity [mPa·s]
x1 = 0.428	1.179
x1 = 0.46	0.949
x1 = 0.474	0.893
x1 = 0.491	0.821
x1 = 0.499	0.796
x1 = 0.51	0.762
x1 = 0.519	0.754
x1 = 0.602	0.726
x1 = 0.711	0.714
x1 = 0.787	0.713
x1 = 0.818	0.709
x1 = 0.906	0.708

CCCCCCC(=O)O + c1ccccc1
298.15 K, 101 kPa
Conditions	viscosity [mPa·s]
x1 = 0.03	0.631
x1 = 0.063	0.666
x1 = 0.096	0.705
x1 = 0.13	0.752
x1 = 0.29	0.99
x1 = 0.38	1.168
x1 = 0.47	1.49
x1 = 0.71	2.3

CCOC(C)=O + c1ccccc1
Conditions	viscosity [mPa·s]
298 K, 101.3 kPa, x2 = 0.1715	0.478
298 K, 101.3 kPa, x2 = 0.3251	0.489
298 K, 101.3 kPa, x2 = 0.5324	0.507
298 K, 101.3 kPa, x2 = 0.6702	0.534
298 K, 101.3 kPa, x2 = 0.8535	0.57
298.15 K, 101 kPa, x1 = 0.0447	0.588
298.15 K, 101 kPa, x1 = 0.1505	0.556
298.15 K, 101 kPa, x1 = 0.2473	0.5181
298.15 K, 101 kPa, x1 = 0.2482	0.531
298.15 K, 101 kPa, x1 = 0.3049	0.499
298.15 K, 101 kPa, x1 = 0.3312	0.499
298.15 K, 101 kPa, x1 = 0.351	0.507
298.15 K, 101 kPa, x1 = 0.4099	0.483
298.15 K, 101 kPa, x1 = 0.4481	0.489
298.15 K, 101 kPa, x1 = 0.453	0.4803
298.15 K, 101 kPa, x1 = 0.461	0.4782
298.15 K, 101 kPa, x1 = 0.4981	0.48
298.15 K, 101 kPa, x1 = 0.5495	0.472
298.15 K, 101 kPa, x1 = 0.6517	0.458
298.15 K, 101 kPa, x1 = 0.7368	0.4446
298.15 K, 101 kPa, x1 = 0.7524	0.446
298.15 K, 101 kPa, x1 = 0.8551	0.437
298.15 K, 101 kPa, x1 = 0.9445	0.431
298.15 K, 101 kPa, x2 = 0.1725	0.442
298.15 K, 101 kPa, x2 = 0.5441	0.487
298.15 K, 101 kPa, x2 = 0.826	0.551
308.15 K, 101 kPa, x1 = 0.0447	0.515
308.15 K, 101 kPa, x1 = 0.1505	0.492
308.15 K, 101 kPa, x1 = 0.2482	0.472
308.15 K, 101 kPa, x1 = 0.351	0.455
308.15 K, 101 kPa, x1 = 0.4481	0.44
308.15 K, 101 kPa, x1 = 0.4981	0.433
308.15 K, 101 kPa, x1 = 0.5495	0.426
308.15 K, 101 kPa, x1 = 0.6517	0.415
308.15 K, 101 kPa, x1 = 0.7524	0.405
308.15 K, 101 kPa, x1 = 0.8551	0.396
308.15 K, 101 kPa, x1 = 0.9445	0.39
318 K, 101.3 kPa, x2 = 0.1624	0.3894
318 K, 101.3 kPa, x2 = 0.3233	0.3971
318 K, 101.3 kPa, x2 = 0.5251	0.4129
318 K, 101.3 kPa, x2 = 0.671	0.4287
318 K, 101.3 kPa, x2 = 0.8633	0.4505

CCOc1ccccc1 + c1ccccc1
viscosity [mPa·s], 101.33 kPa
Conditions	298.15 K	323.15 K
x1 = 0.2	0.68	0.49
x1 = 0.5	0.823	0.576
